Source: the NIST ThermoML archive (doi:10.1007/s10765-010-0902-x)

Legend:
[1] = 298.15 K; 101 kPa; Liquid
[2] = refractive index (Na D-line) (dimensionless); details: 298.15 K; 101.33 kPa; Liquid; Standard Abbe refractometry
[3] = xn = mol fraction of the nth substance listed; details: 298.15 K, 101 kPa, Liquid; for viscosity: Capillary tube (Ostwald / Ubbelohde) method
[4] = refractive index (Na D-line) (dimensionless); xn = mol fraction of the nth substance listed; details: 298.15 K, 101 kPa, Liquid, Standard Abbe refractometry

CCCCCl [1-chlorobutane]
Details	mass density [kg/m3]	refractive index
[1]	880.87	–
[2]	–	1.3996

CCCCCl [1-chlorobutane] + CCCCOC(C)=O
Details	mass density, [3] [kg/m3]	refractive index, [4]	viscosity, [3] [mPa·s]
x2 = 0	880.87	1.3996	–
x2 = 0.0503	880.41	1.3989	0.42
x2 = 0.1111	879.89	1.3981	0.432
x2 = 0.1527	879.56	1.3976	0.441
x2 = 0.2003	879.19	1.3971	0.451
x2 = 0.2996	878.52	1.3961	0.473
x2 = 0.3493	878.23	1.3956	0.484
x2 = 0.3978	877.97	1.3952	0.495
x2 = 0.4508	877.72	1.3947	0.507
x2 = 0.4997	877.51	1.3943	0.519
x2 = 0.55	877.31	1.3939	0.531
x2 = 0.5985	877.15	1.3936	0.543
x2 = 0.6501	876.99	1.3933	0.555
x2 = 0.7002	876.84	1.393	0.568
x2 = 0.7493	876.72	1.3928	0.58
x2 = 0.8042	876.6	1.3925	0.594
x2 = 0.85	876.51	1.3923	0.606
x2 = 0.8991	876.43	1.3921	0.619

CCCCCCCCl [1-chloroheptane]
Details	mass density [kg/m3]	refractive index
[1]	872.79	–
[2]	–	1.4236

CCCCCCCCl [1-chloroheptane] + CCCCOC(C)=O
Details	mass density, [3] [kg/m3]	refractive index, [4]	viscosity, [3] [mPa·s]
x2 = 0	872.79	1.4236	–
x2 = 0.0505	872.6	1.4219	0.828
x2 = 0.1006	872.52	1.4203	0.815
x2 = 0.1503	872.45	1.4189	0.803
x2 = 0.2014	872.41	1.4175	0.792
x2 = 0.3003	872.39	1.4147	0.77
x2 = 0.3505	872.42	1.4133	0.759
x2 = 0.4007	872.48	1.4118	0.749
x2 = 0.4503	872.56	1.4103	0.739
x2 = 0.5006	872.71	1.4087	0.729
x2 = 0.6001	873.07	1.4054	0.71
x2 = 0.65	873.32	1.4037	0.7
x2 = 0.6996	873.64	1.402	0.691
x2 = 0.7499	873.97	1.4003	0.682
x2 = 0.8001	874.32	1.3986	0.674
x2 = 0.9	875.2	1.3952	0.659

CCCCCCCl [1-chlorohexane]
Details	mass density [kg/m3]	refractive index
[1]	873.39	–
[2]	–	1.4171
